Legend:
Assay type in all cases: in vivo, chicken chicks
Eimeria maxima = assay: Cage experiments coccidiosis/chicks, Eimeria maxima part of the mixed infection; details: for Efficacy against Eimeria maxima (grade): second symbol of cell; for Efficacy against Eimeria maxima (grade): key: 2 = complete action; 1 = weak action; 0 = inactive; D = death
Protocol: (§1) The efficacy of the compounds according to the invention can be confirmed, for example, in cage experiments using the following experimental arrangement, in which the animals are treated with the respective individual components and with the mixtures of the individual components.
(§2) An active compound-containing feed is prepared in such a way that the required amount of active compound is thoroughly mixed with a nutritionally balanced animal feed, e.g. with the chick feed indicated below.
(§3) 8 to 12 day-old male chicken chicks raised under coccidea-free conditions (e.g. LSL Brinkschulte/Senden) receive the compounds according to the invention (test substances) from 3 days before (day -3) the infection (=a.i.) until 8 (9) days after the infection (=p.i.) with the feed in the concentration indicated in ppm. Three animals are kept in each cage. Per dose, one to a number of groups of this type are employed. Infection is carried out by means of a stomach tube directly into the crop using approximately 100,000 sporulated oocysts of Eimeria acervulina and with in each case approximately 30,000 oocysts of E. maxima and 40,000 sporulated oocysts of E. tenella. These are highly virulent strains. The exact infectious dose is adjusted such that if possible one of three experimentally infected untreated chicks dies due to infection. For the assessment of the efficacy, the following criteria are taken into consideration: weight increase from the start of the experiment to the end of the experiment, death rate due to infection, macroscopic assessment of the faeces with respect to diarrhoea and excretion of blood on days 5 and 7 p.i. (grade 0 to 6), macroscopic grade of the intestinal mucous membrane, in particular of the cecums (grade 0 to 6) and the oocyst excretion and also the proportion (in %) of the oocysts sporulating within 24 hours. The number of oocysts in the faeces was determined with the aid of the McMaster counting chamber (see Engelbrecht and coworkers “Parasitologische Arbeitsmethoden in Medizin und Veterinärmedizin, [Parasitological working methods in medicine and veterinary medicine] Akademie-Verlag, Berlin (1965)). The individual findings are related to the untreated noninfected control groups and an overall grade is calculated (cf. A. Haberkorn (1986), pp. 263 to 270 in Research in Avian Coccidiosis ed L. R. McDougald, L. P. Joyner, P. L. Long Proceedings of the Georgia Coccidiosis Conference Nov, 18-20, 1985 Athens/Ga. USA).
(§4) In the columns “dropping scores”, “lesion score” and “oocyst control”, individual details of the action are given.

[1] = system: Eimeria acervulina, Eimeria maxima and Eimeria tenella; assay: Cage experiments coccidiosis/chicks, mixed experimental infection
Protocol: as §1, §2, §3
In the column “ppm”, the concentration of the active compound employed in the feed is indicated in ppm.
In the column “mortality”, the percentage of the animals which have died is indicated under % and the number of the animals which have died/animals employed in the experiment is indicated under n.
In the column “weight % of not inf. control”, the ratio of the weight of the treated animals to the weight of the noninfected control group is indicated.
as §4
In the column “% efficacy”, the overall rating is assessed; 0% means no action, 100% means complete action.

Eimeria tenella = assay: Cage experiments coccidiosis/chicks, Eimeria tenella part of the mixed infection; details: for Efficacy against Eimeria tenella (grade): third symbol of cell; for Efficacy against Eimeria tenella (grade): key: 2 = complete action; 1 = weak action; 0 = inactive; D = death
Protocol: as §1, §2, §3, §4

Eimeria acervulina = assay: Cage experiments coccidiosis/chicks, Eimeria acervulina part of the mixed infection; details: for Efficacy against Eimeria acervulina (grade): first symbol of cell; for Efficacy against Eimeria acervulina (grade): key: 2 = complete action; 1 = weak action; 0 = inactive; D = death
Protocol: as §1, §2, §3, §4

[2] = 0 ppm in feed (so in the source)
[3] = 0 ppm in feed (so in the source), grade 0 to 6
[4] = 2.5 ppm in feed, listed as Ex. 13
[5] = 5 ppm in feed, listed as Ex. 13
[6] = 10 ppm in feed, listed as Ex. 13

## Cc1oc(=O)oc1Cn1c(C(F)(F)F)nc2c(Cl)cc(C(F)(F)F)cc21 [Example 11]
Eimeria maxima; [2]
  oocyst in % of inf. control max.: 0%
Eimeria maxima; 5 ppm
  oocyst in % of inf. control max.: >100 % of inf. control
Eimeria maxima; 5 ppm in feed
  oocyst in % of inf. control max.: 0%
Eimeria maxima; 7.5 ppm
  oocyst in % of inf. control max.: >100 % of inf. control
Eimeria maxima; 10 ppm
  oocyst in % of inf. control max.: 0 % of inf. control
Eimeria maxima; 25 ppm in feed
  oocyst in % of inf. control max.: 0%
Eimeria maxima; Dose 5 ppm
  Efficacy against Eimeria maxima (grade): 0
Eimeria maxima; Dose 10 ppm
  Efficacy against Eimeria maxima (grade): 1
Eimeria maxima; Dose 25 ppm
  Efficacy against Eimeria maxima (grade): 2
[1]; [2]
  % efficacy tot.: 39%
  mortality %: 0%
  mortality n (died/employed): 0/3
  oocyst in % of inf. control tot.: 34%
  weight % of not inf. control: 52%
[1]; [3]
  dropping scores: 6
  lesion score: 6
[1]; 5 ppm
  % efficay tot.: 11%
  dropping scores: 6
  lesion score: 6
  mortality %: 33%
  mortality n: 1/3
  oocyst in % of inf. control tot.: 47 % of inf. control
  weight % of not inf. control: 42 % of not inf. control
[1]; 5 ppm in feed
  % efficacy tot.: 0%
  mortality %: 66%
  mortality n (died/employed): 2/3
  oocyst in % of inf. control tot.: >100%
  weight % of not inf. control: 17%
[1]; 5 ppm in feed, grade 0 to 6
  dropping scores: 6
  lesion score: 6
[1]; 7.5 ppm
  % efficay tot.: 7%
  dropping scores: 6
  lesion score: 6
  mortality %: 0%
  mortality n: 0/3
  oocyst in % of inf. control tot.: 75 % of inf. control
  weight % of not inf. control: 58 % of not inf. control
[1]; 10 ppm
  % efficay tot.: 22%
  dropping scores: 6
  lesion score: 6
  mortality %: 33%
  mortality n: 1/3
  oocyst in % of inf. control tot.: 72 % of inf. control
  weight % of not inf. control: 41 % of not inf. control
[1]; 25 ppm in feed
  % efficacy tot.: 79%
  mortality %: 0%
  mortality n (died/employed): 0/3
  oocyst in % of inf. control tot.: 0%
  weight % of not inf. control: 67%
[1]; 25 ppm in feed, grade 0 to 6
  dropping scores: 2
  lesion score: 0
Eimeria tenella; [2]
  oocyst in % of inf. control ten.: 27%
Eimeria tenella; 5 ppm
  oocyst in % of inf. control ten.: 91 % of inf. control
Eimeria tenella; 5 ppm in feed
  oocyst in % of inf. control ten.: >100%
Eimeria tenella; 7.5 ppm
  oocyst in % of inf. control ten.: >100 % of inf. control
Eimeria tenella; 10 ppm
  oocyst in % of inf. control ten.: 44 % of inf. control
Eimeria tenella; 25 ppm in feed
  oocyst in % of inf. control ten.: 0%
Eimeria tenella; Dose 5 ppm
  Efficacy against Eimeria tenella (grade): 0
Eimeria tenella; Dose 10 ppm
  Efficacy against Eimeria tenella (grade): 1
Eimeria tenella; Dose 25 ppm
  Efficacy against Eimeria tenella (grade): 2
Eimeria acervulina; [2]
  oocyst in % of inf. control ac.: 38%
Eimeria acervulina; 5 ppm
  oocyst in % of inf. control ac.: 19 % of inf. control
Eimeria acervulina; 5 ppm in feed
  oocyst in % of inf. control ac.: >100%
Eimeria acervulina; 7.5 ppm
  oocyst in % of inf. control ac.: 22 % of inf. control
Eimeria acervulina; 10 ppm
  oocyst in % of inf. control ac.: 91 % of inf. control
Eimeria acervulina; 25 ppm in feed
  oocyst in % of inf. control ac.: 0%
Eimeria acervulina; Dose 5 ppm
  Efficacy against Eimeria acervulina (grade): 0
Eimeria acervulina; Dose 10 ppm
  Efficacy against Eimeria acervulina (grade): 1
Eimeria acervulina; Dose 25 ppm
  Efficacy against Eimeria acervulina (grade): 2

## Cc1oc(=O)oc1Cn1c(C(F)(F)F)nc2cc(C(F)(F)F)c(C(F)(F)F)cc21 [Example 13]
Eimeria maxima; 2.5 ppm in feed
  oocyst in % of inf. control max.: 0%
Eimeria maxima; [4]
  oocyst in % of inf. control max.: 55%
Eimeria maxima; 5 ppm in feed
  oocyst in % of inf. control max.: 0%
Eimeria maxima; [5]
  oocyst in % of inf. control max.: 36%
Eimeria maxima; 7.5 ppm in feed
  oocyst in % of inf. control max.: 0%
Eimeria maxima; 10 ppm in feed
  oocyst in % of inf. control max.: 0%
Eimeria maxima; Dose 5 ppm
  Efficacy against Eimeria maxima (grade): 1
Eimeria maxima; Dose 10 ppm
  Efficacy against Eimeria maxima (grade): 2
Eimeria maxima; Dose 25 ppm
  Efficacy against Eimeria maxima (grade): D D D
[1]; 2.5 ppm in feed
  % efficacy tot.: 15%
  mortality %: 33%
  mortality n (died/employed): 1/3
  oocyst in % of inf. control tot.: 41%
  weight % of not inf. control: 61%
[1]; 2.5 ppm in feed, grade 0 to 6
  dropping scores: 6
  lesion score: 6
[1]; [4]
  % efficacy tot.: 16%
  mortality %: 0%
  mortality n (died/employed): 0/3
  oocyst in % of inf. control tot.: 57%
[1]; 5 ppm in feed
  % efficacy tot.: 50%
  mortality %: 33%
  mortality n (died/employed): 1/3
  oocyst in % of inf. control tot.: 4%
  weight % of not inf. control: 74%
[1]; 5 ppm in feed, grade 0 to 6
  dropping scores: 6
  lesion score: 6
[1]; 5 ppm in feed, grade 0 to 6, listed as Ex. 13
  lesion score: 4.6
[1]; [5]
  % efficacy tot.: 32%
  mortality %: 0%
  mortality n (died/employed): 0/3
  oocyst in % of inf. control tot.: 26%
[1]; 7.5 ppm in feed
  % efficacy tot.: 74%
  mortality %: 0%
  mortality n (died/employed): 0/3
  oocyst in % of inf. control tot.: 0%
  weight % of not inf. control: 81%
[1]; 7.5 ppm in feed, grade 0 to 6
  dropping scores: 6
  lesion score: 5.3
[1]; 10 ppm in feed
  % efficacy tot.: 73%
  mortality %: 0%
  mortality n (died/employed): 0/3
  oocyst in % of inf. control tot.: 0%
  weight % of not inf. control: 83%
[1]; 10 ppm in feed, grade 0 to 6
  dropping scores: 6
  lesion score: 4.3
[1]; 10 ppm in feed, grade 0 to 6, listed as Ex. 13
  lesion score: 5.3
[1]; [6]
  % efficacy tot.: 78%
  weight % of not inf. control: 76%
Eimeria tenella; 2.5 ppm in feed
  oocyst in % of inf. control ten.: 27%
Eimeria tenella; [4]
  oocyst in % of inf. control ten.: >100%
Eimeria tenella; 5 ppm in feed
  oocyst in % of inf. control ten.: 3%
Eimeria tenella; [5]
  oocyst in % of inf. control ten.: 27%
Eimeria tenella; 7.5 ppm in feed
  oocyst in % of inf. control ten.: 0%
Eimeria tenella; 10 ppm in feed
  oocyst in % of inf. control ten.: 0%
Eimeria tenella; Dose 5 ppm
  Efficacy against Eimeria tenella (grade): 1
Eimeria tenella; Dose 10 ppm
  Efficacy against Eimeria tenella (grade): 2
Eimeria tenella; Dose 25 ppm
  Efficacy against Eimeria tenella (grade): D D D
Eimeria acervulina; 2.5 ppm in feed
  oocyst in % of inf. control ac.: 55%
Eimeria acervulina; [4]
  oocyst in % of inf. control ac.: 33%
Eimeria acervulina; 5 ppm in feed
  oocyst in % of inf. control ac.: 5%
Eimeria acervulina; [5]
  oocyst in % of inf. control ac.: 25%
Eimeria acervulina; 7.5 ppm in feed
  oocyst in % of inf. control ac.: 0%
Eimeria acervulina; 10 ppm in feed
  oocyst in % of inf. control ac.: 0%
Eimeria acervulina; Dose 5 ppm
  Efficacy against Eimeria acervulina (grade): 2
Eimeria acervulina; Dose 10 ppm
  Efficacy against Eimeria acervulina (grade): 2
Eimeria acervulina; Dose 25 ppm
  Efficacy against Eimeria acervulina (grade): D D D

— patent US6569881B1, “Substituted benzimidazole, the production thereof and the use thereof as means against parasitic protozoa” (Bayer Aktiengesellschaft, priority 1999, dated 2003)
